Assays:
[1] = molecular target: Mitogen-activated protein kinase kinase kinase 5 (Homo sapiens) (UniProt Q99683); test: Inhibition of human ASK1 at 10 uM after 60 mins by TR-FRET assay; values are per cent of control
[2] = molecular target: Tyrosine-protein kinase Blk (Mus musculus) (UniProt P16277); test: Inhibition of mouse Blk at 10 uM after 60 mins by TR-FRET assay; values are per cent of control
Rattus norvegicus = species: Rattus norvegicus; test: Inhibition of rat CaMK2 at 10 uM after 60 mins by TR-FRET assay; values are per cent of control
[3] = molecular target: Ribosomal protein S6 kinase alpha-4 (Homo sapiens) (UniProt O75676); test: Inhibition of human MSK2 at 10 uM after 60 mins by TR-FRET assay; conditions: values are per cent of control
[4] = molecular target: Tyrosine-protein kinase ITK/TSK (Homo sapiens) (UniProt Q08881); test: Inhibition of human Itk at 10 uM after 60 mins by TR-FRET assay; conditions: values are per cent of control
[5] = system: Mast/stem cell growth factor receptor Kit (Homo sapiens), P10721 [D816V]; test: Inhibition of human c-Kit D816V mutant at 10 uM after 60 mins by TR-FRET assay; values are per cent of control
[6] = molecular target: SRSF protein kinase 1 (Homo sapiens) (UniProt Q96SB4); test: Inhibition of human SRPK1 at 10 uM after 60 mins by TR-FRET assay; values are per cent of control
Chain of SRSF protein kinase 1 (Homo sapiens) (Q96SB4 whole entry): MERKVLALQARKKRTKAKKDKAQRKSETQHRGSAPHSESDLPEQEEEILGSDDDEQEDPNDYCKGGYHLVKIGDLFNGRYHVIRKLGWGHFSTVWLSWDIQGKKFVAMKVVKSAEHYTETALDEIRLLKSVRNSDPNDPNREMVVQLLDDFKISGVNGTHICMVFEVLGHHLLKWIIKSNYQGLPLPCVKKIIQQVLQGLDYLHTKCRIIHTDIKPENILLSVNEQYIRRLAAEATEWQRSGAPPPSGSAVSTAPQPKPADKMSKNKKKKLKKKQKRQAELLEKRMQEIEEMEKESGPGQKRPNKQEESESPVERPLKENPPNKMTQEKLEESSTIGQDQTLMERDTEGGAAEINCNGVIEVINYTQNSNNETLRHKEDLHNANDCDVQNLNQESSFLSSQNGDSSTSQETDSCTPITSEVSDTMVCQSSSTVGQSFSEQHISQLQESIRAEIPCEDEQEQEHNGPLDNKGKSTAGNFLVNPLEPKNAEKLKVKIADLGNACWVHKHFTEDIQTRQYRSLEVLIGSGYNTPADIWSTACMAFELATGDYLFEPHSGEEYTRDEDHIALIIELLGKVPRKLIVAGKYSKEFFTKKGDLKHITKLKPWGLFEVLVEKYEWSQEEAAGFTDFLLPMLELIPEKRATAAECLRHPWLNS

[7] = system: Epidermal growth factor receptor (Homo sapiens), P00533 [L861Q]; test: Inhibition of human EGFR L861Q mutant at 10 uM after 60 mins by TR-FRET assay; assay type: protein assay; conditions: values are per cent of control
Chain of Epidermal growth factor receptor (Homo sapiens), P00533 [L861Q] (P00533 whole entry L861Q): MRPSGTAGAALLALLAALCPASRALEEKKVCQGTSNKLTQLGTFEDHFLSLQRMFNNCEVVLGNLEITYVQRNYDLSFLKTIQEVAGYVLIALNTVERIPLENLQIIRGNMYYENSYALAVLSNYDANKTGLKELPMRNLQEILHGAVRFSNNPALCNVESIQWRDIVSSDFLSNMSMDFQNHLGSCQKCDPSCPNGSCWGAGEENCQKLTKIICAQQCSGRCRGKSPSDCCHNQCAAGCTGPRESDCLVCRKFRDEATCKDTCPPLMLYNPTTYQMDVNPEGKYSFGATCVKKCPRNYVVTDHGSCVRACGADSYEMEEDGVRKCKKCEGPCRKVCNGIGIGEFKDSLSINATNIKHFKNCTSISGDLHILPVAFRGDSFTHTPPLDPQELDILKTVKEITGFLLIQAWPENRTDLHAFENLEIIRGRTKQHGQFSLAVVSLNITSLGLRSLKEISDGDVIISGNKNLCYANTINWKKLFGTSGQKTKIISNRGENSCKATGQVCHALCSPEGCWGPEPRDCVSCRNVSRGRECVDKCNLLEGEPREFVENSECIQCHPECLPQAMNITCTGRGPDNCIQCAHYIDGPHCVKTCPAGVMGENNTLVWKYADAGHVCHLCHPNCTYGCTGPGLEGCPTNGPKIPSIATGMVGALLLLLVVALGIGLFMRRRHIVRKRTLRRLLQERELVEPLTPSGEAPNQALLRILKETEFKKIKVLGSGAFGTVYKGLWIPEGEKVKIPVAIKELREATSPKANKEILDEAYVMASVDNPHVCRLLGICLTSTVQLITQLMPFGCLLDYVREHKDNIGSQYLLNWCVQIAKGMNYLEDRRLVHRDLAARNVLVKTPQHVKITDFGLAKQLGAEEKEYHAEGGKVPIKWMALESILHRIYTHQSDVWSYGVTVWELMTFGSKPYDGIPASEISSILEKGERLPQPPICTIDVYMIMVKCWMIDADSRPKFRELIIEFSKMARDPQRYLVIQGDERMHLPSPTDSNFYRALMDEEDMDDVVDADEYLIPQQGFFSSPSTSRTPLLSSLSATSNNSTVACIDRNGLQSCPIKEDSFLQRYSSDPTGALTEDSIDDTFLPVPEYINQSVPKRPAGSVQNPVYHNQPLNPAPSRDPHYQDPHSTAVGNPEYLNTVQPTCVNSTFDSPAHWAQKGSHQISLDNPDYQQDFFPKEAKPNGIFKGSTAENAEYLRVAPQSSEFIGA

[8] = system: Receptor-type tyrosine-protein kinase FLT3 (Homo sapiens), P36888 [D835Y]; test: Inhibition of human Flt3 D835Y mutant at 10 uM after 60 mins by TR-FRET assay; values are per cent of control
[9] = molecular target: Dual specificity mitogen-activated protein kinase kinase 6 (Homo sapiens) (UniProt P52564); test: Inhibition of human MKK6 at 10 uM after 60 mins by TR-FRET assay; values are per cent of control
[10] = molecular target: Ephrin type-B receptor 1 (Homo sapiens) (UniProt P54762); test: Inhibition of human EphB1 at 10 uM after 60 mins by TR-FRET assay; values are per cent of control
Chain of Ephrin type-B receptor 1 (Homo sapiens) (P54762 whole entry): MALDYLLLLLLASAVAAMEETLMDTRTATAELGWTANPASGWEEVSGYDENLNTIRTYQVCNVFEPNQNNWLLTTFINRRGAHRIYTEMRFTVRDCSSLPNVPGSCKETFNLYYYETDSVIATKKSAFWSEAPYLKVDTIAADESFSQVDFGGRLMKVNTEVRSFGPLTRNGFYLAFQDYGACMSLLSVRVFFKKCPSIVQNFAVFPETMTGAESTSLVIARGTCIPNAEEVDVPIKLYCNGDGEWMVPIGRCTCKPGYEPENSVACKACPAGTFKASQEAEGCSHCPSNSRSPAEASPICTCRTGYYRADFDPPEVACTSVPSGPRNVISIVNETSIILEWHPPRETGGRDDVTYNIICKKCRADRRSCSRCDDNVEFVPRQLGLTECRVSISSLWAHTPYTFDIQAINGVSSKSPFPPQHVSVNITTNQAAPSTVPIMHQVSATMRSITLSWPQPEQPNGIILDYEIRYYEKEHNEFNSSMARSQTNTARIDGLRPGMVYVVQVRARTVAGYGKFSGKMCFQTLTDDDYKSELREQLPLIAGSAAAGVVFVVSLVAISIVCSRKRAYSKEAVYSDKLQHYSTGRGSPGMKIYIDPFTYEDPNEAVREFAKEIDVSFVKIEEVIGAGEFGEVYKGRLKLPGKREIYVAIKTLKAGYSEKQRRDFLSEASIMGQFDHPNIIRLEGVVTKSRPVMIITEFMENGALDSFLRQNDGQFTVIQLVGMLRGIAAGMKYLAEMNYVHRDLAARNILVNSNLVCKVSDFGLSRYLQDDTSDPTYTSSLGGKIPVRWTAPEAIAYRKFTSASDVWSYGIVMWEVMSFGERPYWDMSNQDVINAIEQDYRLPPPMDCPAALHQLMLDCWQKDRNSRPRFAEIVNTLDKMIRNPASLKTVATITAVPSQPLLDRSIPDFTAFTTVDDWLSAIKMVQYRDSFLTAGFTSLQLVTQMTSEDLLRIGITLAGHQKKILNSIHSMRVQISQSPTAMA

[11] = molecular target: Serine/threonine-protein kinase WNK3 (Homo sapiens) (UniProt Q9BYP7); test: Inhibition of human WNK3 at 10 uM after 60 mins by TR-FRET assay; values are per cent of control
[12] = molecular target: PAS domain-containing serine/threonine-protein kinase (Homo sapiens) (UniProt Q96RG2); test: Inhibition of human PASK at 10 uM after 60 mins by TR-FRET assay; values are per cent of control
Chain of PAS domain-containing serine/threonine-protein kinase (Homo sapiens) (Q96RG2 whole entry, the tested form may be a part): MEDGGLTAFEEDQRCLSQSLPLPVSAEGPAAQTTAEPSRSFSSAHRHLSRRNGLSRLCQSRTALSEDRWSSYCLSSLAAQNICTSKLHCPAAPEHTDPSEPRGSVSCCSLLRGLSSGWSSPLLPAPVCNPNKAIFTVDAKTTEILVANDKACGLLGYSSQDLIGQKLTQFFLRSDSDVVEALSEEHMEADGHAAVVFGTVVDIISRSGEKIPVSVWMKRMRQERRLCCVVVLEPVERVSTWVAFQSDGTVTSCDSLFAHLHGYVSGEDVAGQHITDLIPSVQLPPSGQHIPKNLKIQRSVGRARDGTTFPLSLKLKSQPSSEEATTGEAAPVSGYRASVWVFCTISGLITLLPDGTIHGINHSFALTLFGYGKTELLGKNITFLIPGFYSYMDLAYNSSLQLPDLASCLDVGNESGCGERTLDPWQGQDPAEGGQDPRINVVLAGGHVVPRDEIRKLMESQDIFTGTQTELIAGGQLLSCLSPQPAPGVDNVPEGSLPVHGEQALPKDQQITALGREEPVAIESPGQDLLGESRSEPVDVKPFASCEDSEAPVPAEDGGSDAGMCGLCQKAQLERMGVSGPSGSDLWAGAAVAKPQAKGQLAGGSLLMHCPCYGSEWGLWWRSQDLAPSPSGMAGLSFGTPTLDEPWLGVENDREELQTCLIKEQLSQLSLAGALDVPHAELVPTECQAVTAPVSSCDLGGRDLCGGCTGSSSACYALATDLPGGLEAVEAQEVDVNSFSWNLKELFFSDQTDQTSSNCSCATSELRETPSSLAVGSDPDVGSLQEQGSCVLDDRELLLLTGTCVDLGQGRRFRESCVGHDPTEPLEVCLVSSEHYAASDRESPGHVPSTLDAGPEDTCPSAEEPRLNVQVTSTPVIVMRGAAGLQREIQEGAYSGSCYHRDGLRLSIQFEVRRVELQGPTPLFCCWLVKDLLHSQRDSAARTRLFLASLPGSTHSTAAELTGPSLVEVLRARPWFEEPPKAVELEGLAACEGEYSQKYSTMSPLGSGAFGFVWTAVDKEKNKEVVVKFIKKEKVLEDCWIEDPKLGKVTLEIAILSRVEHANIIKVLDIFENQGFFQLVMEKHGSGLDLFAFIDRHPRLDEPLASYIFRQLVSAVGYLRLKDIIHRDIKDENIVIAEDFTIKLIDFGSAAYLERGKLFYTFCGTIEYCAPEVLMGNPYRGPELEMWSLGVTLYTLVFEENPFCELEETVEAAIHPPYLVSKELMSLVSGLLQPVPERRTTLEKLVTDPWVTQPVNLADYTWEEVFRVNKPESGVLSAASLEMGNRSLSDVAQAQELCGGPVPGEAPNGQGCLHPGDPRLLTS

[13] = molecular target: Mitogen-activated protein kinase 14 (Homo sapiens, UniProt Q16539); test: Inhibition of human SAPK2a at 10 uM after 60 mins by TR-FRET assay; conditions: values are per cent of control
[14] = molecular target: Serine/threonine-protein kinase ULK2 (Homo sapiens) (UniProt Q8IYT8); test: Inhibition of human ULK2 at 10 uM after 60 mins by TR-FRET assay; values are per cent of control
[15] = molecular target: Ribosomal protein S6 kinase alpha-3 (Homo sapiens) (UniProt P51812); test: Inhibition of human Rsk2 at 10 uM after 60 mins by TR-FRET assay; conditions: values are per cent of control
[16] = molecular target: Phosphorylase b kinase gamma catalytic chain, liver/testis isoform (Homo sapiens) (UniProt P15735); test: Inhibition of human PhKgamma2 at 10 uM after 60 mins by TR-FRET assay; values are per cent of control
[17] = molecular target: Receptor-type tyrosine-protein kinase FLT3 (Homo sapiens) (UniProt P36888); test: Inhibition of human Flt3 at 10 uM after 60 mins by TR-FRET assay; values are per cent of control
[18] = molecular target: Casein kinase I isoform delta (Homo sapiens) (UniProt P48730); test: Inhibition of human CK1d at 10 uM after 60 mins by TR-FRET assay; values are per cent of control
Chain of Casein kinase I isoform delta (Homo sapiens) (P48730 whole entry, looked up, canonical isoform): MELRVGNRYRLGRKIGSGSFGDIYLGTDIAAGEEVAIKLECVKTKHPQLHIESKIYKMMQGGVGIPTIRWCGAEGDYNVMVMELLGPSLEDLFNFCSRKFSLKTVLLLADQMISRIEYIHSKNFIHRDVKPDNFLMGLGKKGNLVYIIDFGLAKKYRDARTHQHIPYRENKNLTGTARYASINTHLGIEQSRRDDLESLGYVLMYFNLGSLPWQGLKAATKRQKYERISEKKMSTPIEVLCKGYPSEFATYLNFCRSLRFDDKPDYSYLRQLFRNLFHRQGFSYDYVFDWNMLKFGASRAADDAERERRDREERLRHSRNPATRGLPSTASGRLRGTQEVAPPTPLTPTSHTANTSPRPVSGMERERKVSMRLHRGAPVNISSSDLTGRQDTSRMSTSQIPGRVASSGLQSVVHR

Chain of Tyrosine-protein kinase Blk (Mus musculus) (P16277 whole entry): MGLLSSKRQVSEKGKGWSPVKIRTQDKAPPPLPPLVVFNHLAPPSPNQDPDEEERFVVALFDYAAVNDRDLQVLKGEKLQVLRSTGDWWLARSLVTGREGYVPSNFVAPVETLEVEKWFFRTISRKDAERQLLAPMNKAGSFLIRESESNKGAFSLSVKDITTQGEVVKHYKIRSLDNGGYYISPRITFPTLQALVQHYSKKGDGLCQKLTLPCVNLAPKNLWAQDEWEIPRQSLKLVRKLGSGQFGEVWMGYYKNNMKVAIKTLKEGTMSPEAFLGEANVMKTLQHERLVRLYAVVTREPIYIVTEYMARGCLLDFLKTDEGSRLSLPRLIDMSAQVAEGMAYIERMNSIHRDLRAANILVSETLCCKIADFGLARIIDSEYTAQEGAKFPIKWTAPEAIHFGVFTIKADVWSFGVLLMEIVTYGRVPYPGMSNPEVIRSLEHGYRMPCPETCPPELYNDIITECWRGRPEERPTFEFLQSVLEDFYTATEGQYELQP

residual activity [1]: 102% | residual activity [2]: 107% | residual activity (Rattus norvegicus): 110% | residual activity [3]: 109% | residual activity [4]: 103% | residual activity [5]: 113% | residual activity [6]: 93% | residual activity [7]: 64% | residual activity [8]: 99% | residual activity [9]: 85% | residual activity [10]: 79% | residual activity [11]: 100% | residual activity [12]: 99% | residual activity [13]: 71% | residual activity [14]: 103% | residual activity [15]: 98% | residual activity [16]: 109% | residual activity [17]: 119% | residual activity [18]: 96%
Compound: S=c1[nH]nc(-c2ccncc2)n1-c1ccc2ccccc2c1

Source: ChEMBL document CHEMBL1641539 (Bioorg Med Chem Lett, 2011)
